In patent publication US5614625A, “Hydroxamic acid derivatives with tricyclic substitution” (Hoffmann-La Roche Inc., priority 1994, dated 1997):

These compounds were tested against T1, collagenase obtained from a culture of human synovial fibroblasts (Homo sapiens, UniProt P03956) (assay: in vitro collagenase inhibiting activity, microtitre plate assay with 14C-acetylated collagen type I from rat tail tendons as substrate). Conditions: trypsin-activated pro-collagenase; 14C-acetylated collagen type I substrate; concentration reducing substrate cleavage and solubilization to 50%.
T1 construct: endogenous in cells; host or cells: human synovial fibroblast culture (conditioned medium)
T1 sequence (P03956 100-469): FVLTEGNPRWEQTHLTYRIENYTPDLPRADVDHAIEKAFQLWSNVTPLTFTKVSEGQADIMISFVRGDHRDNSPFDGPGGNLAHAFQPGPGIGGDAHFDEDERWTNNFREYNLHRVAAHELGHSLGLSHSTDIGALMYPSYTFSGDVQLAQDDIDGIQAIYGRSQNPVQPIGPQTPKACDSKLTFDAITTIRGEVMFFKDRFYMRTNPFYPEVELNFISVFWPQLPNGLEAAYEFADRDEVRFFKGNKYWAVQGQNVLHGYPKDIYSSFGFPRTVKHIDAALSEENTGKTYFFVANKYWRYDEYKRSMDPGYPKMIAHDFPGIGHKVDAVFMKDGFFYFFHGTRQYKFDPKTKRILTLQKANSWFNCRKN
Assay type: biochemical
`CN1C(=O)N(CC(C(=O)NO)[C@@H](CC2CCC2)C(=O)N2CCCCC2)C(=O)C1(C)C` (single isomer, unassigned) [Example 4, 1-[3-cyclobutyl-2(R)-[1(R or S)-(hydroxycarbamoyl)-2-(3,4,4-trimethyl-2,5-dioxo-1-imidazolidinyl)ethyl]propionyl]piperidine] was tested, and the IC50 was 7 nM. Compound `CN1C(=O)N(CC(C(=O)NO)[C@@H](CC2CCCC2)C(=O)N2CCC(O)CC2)C(=O)C1(C)C` (single isomer, unassigned) [Example 7, 1-[3-cyclopentyl-2[(R)-[1(R or S)-(hydroxycarbamoyl)-2-(3,4,4-trimethyl-2,5-dioxo-1imidazolidinyl)ethyl]propionyl]-4-piperidinol] has an IC50 of 6.5 nM. `CN1C(=O)N(CC(C(=O)NO)[C@@H](CC2CCCC2)C(=O)N2CCOCC2)C(=O)C1(C)C` (single isomer, unassigned) [Example 16, 4-[3-cyclopentyl-2(R)-[1(R or S)-(hydroxycarbamoyl)-2-(3,4,4-trimethyl-2,5-dioxo-1-imidazolidinyl)ethyl]propionyl]morpholine] showed an IC50 of 4.1 nM. For `CN1C(=O)N(CC(C(=O)NO)[C@@H](CC2CCC2)C(=O)N2CCC(O)CC2)C(=O)C1(C)C` (single isomer, unassigned) [Example 5, 1-[3-cyclobutyl-2(R)-[1(R or S)-(hydroxycarbamoyl)-2-(3,4,4-trimethyl-2,5-dioxo-1-imidazolidinyl)ethyl]propionyl]-4-piperidinol], the IC50 was 2.5 nM. `CN1C(=O)N(CC(C(=O)NO)[C@@H](CC2CCC2)C(=O)N2CCCCCCC2)C(=O)C1(C)C` (single isomer, unassigned) [Example 23, 1-[3-cyclobutyl-2(R)-[1(R or S)-(hydroxycarbamoyl)-2-(3,4,4-trimethyl-2,5-dioxo-1-imidazolidinyl)ethyl]propionyl]octahydroazocine] gave an IC50 of 34 nM. `CN1C(=O)N(CC(C(=O)NO)[C@@H](CC2CC2)C(=O)N2CCC(O)CC2)C(=O)C1(C)C` (single isomer, unassigned) [Example 2, 1-[3-cyclopropyl-2-(R)-[1(R or S)-(hydroxycarbamoyl)-2-(3,4,4-trimethyl-2,5-dioxo-1-imidazolidinyl)ethyl]propionyl]-4-piperidinol] showed an IC50 of 18 nM. `CNC(=O)[C@H]1N(C(=O)[C@H](CC2CCCC2)C(CN2C(=O)N(C)C(C)(C)C2=O)C(=O)NO)CSC1(C)C` (single isomer, unassigned) [Example 17, 3-[3-cyclopentyl-2(R)-[1(R or S)-(hydroxycarbamoyl)-2-(3,4,4-trimethyl-2,5-dioxo-1imidazolidinyl)ethyl]propionyl]-N,5,5-trimethyl-4(R)-thiazolidinecarboxamide] was tested, and the IC50 was 2.35 nM.
